This is an account of results in ChEMBL document CHEMBL3132824, “Discovery of novel pyridazinylthioacetamides as potent HIV-1 NNRTIs using a structure-based bioisosterism approach” (Medchemcomm, 2013).

Where only a bound is given, the exact number is not on record here.

Series [1] in a line: Selectivity ratio of CC50 for HIV-1 3B mock-infected human MT4 cells to EC50 for HIV-1 3B infected in human MT4 cells. The series is classed as ADME, cell-based. The conditions noted are these: read-out: Ratio CC50/EC50.
A short description of series [2]: Cytotoxicity against HIV-1 3B mock-infected human MT4 cells assessed as reduction in cell viability by MTT assay. It counts as cell-based. The conditions noted are these: HIV-1 3B mock-infected MT4 cells. On the technique in general: Formazan colour is commonly taken as a measure of viable cells.
Series [3] relates to Human immunodeficiency virus 1. Nature of the series: Antiviral activity against HIV-1 3B infected in human MT4 cells assessed as inhibition of virus-induced cytopathicity by MTT assay. The conditions noted are these: Human immunodeficiency virus 1, 3B. The series is classed as functional, organism-based.
Series [4] deals with Human immunodeficiency virus 2. Kind of series: Antiviral activity against HIV-2 ROD infected in human MT4 cells assessed as inhibition of virus-induced cytopathicity by MTT assay. The conditions noted are these: Human immunodeficiency virus 2, ISOLATE ROD. It counts as functional, organism-based.
Series [5] can be described thus: Selectivity ratio of CC50 for HIV-2 ROD mock-infected human MT4 cells to EC50 for HIV-2 ROD infected in human MT4 cells. It counts as ADME, cell-based. The conditions noted are these: read-out: Ratio CC50/EC50.
A short description of series [6]: Cytotoxicity against HIV-2 ROD mock-infected human MT4 cells assessed as reduction in cell viability by MTT assay. The series is classed as cell-based. The conditions noted are these: HIV-2 ROD mock-infected MT4 cells.
For series [7], the target named is Human immunodeficiency virus type 1 reverse transcriptase (Human immunodeficiency virus 1, UniProt Q72547). Nature of the series: Inhibition of purified recombinant HIV-1 reverse transcriptase assessed as inhibition of biotin-dUTP incorporation using poly(rC)-oligo(dG) as template primer.

For the compound `O=C(CSc1nnccc1-c1cccc2ccccc12)c1ccc(Cl)cc1Cl`, the selectivity ratio in series [1] was 10; in series [5], < 1. Moreover, the results for the CC50 in series [2] and in series [6] were 54.6 µM and 55 µM, respectively. Also, the EC50 was 5.46 µM in series [3] and > 55 µM in series [4].
Consider `O=C(CSc1nnccc1-c1cccc2ccccc12)Nc1ccccc1`, for which the results for the selectivity ratio in series [1] and in series [5] were 105 and < 1, respectively. For the same compound, the results for the CC50 in series [2] and in series [6] were 203 µM and 174 µM, respectively. The EC50 is 1.93 µM in series [3] and > 174 µM in series [4].
Regarding `O=C(CSc1nnccc1-c1cccc2ccccc12)Nc1ccccc1Cl`, the selectivity ratio is 177 in series [1] and < 1 in series [5]. The CC50 in series [2] was 34.2 µM; in series [6] it was 35 µM. Also, the EC50 is 0.19 µM in series [3] and > 35 µM in series [4].
Take `O=C(CSc1nnccc1-c1cccc2ccccc12)Nc1ccc(Cl)cc1Cl`: the selectivity ratio was > 684 in series [1] and < 1 in series [5]. In addition, the CC50 in series [2] was > 284 µM; in series [6] it was 232 µM. In addition, the EC50 was 0.42 µM in series [3] and > 232 µM in series [4].
In the case of `O=C(CSc1nnccc1-c1cccc2ccccc12)Nc1ccccc1F`, the selectivity ratio in series [1] was 799; in series [5], < 1. Besides, the CC50 was 204 µM in series [2] and 241 µM in series [6]. The EC50 in series [3] is 0.26 µM; in series [4], > 241 µM.
As for `O=C(CSc1nnccc1-c1cccc2ccccc12)Nc1ccccc1Br`, the selectivity ratio in series [1] is 151; in series [5], < 1. Also, the CC50 in series [2] came out at 31.5 µM; in series [6] it was 31.3 µM. Further, the EC50 in series [3] is 0.21 µM; in series [4], > 31.3 µM.
With `Cc1ccc(NC(=O)CSc2nnccc2-c2cccc3ccccc23)c(Br)c1`, the selectivity ratio in series [1] was 929; in series [5] it was < 1. The CC50 in series [2] was found to be 182 µM; in series [6], 215 µM. Also, the EC50 in series [3] was 0.2 µM; in series [4], > 215 µM.
Turning to `CC(=O)c1ccc(NC(=O)CSc2nnccc2-c2cccc3ccccc23)c(Br)c1`, the selectivity ratio in series [1] is 370; in series [5], < 1. Also, the CC50 in series [2] was 46.3 µM; in series [6] it was 48.5 µM. The EC50 in series [3] is 0.13 µM; in series [4], > 48.5 µM.
As to `COC(=O)c1ccc(NC(=O)CSc2nnccc2-c2cccc3ccccc23)c(Br)c1`, the selectivity ratio was 1110 in series [1] and < 1 in series [5]. Moreover, the CC50 in series [2] is 159 µM; in series [6] it was > 246 µM. In addition, the results for the EC50 in series [3] and in series [4] were 0.14 µM and > 246 µM, respectively.
As to `CCOC(=O)c1ccc(NC(=O)CSc2nnccc2-c2cccc3ccccc23)c(Br)c1`, the selectivity ratio in series [1] is 420; in series [5], < 1. Moreover, the results for the CC50 in series [2] and in series [6] were 237 µM and > 239 µM, respectively. Also, the EC50 is 0.56 µM in series [3] and > 239 µM in series [4].
Take `Cc1ccc(NC(=O)CSc2nnccc2-c2cccc3ccccc23)c([N+](=O)[O-])c1`: the selectivity ratio was 1440 in series [1] and < 1 in series [5]. For the same compound, the results for the CC50 in series [2] and in series [6] were 204 µM and 244 µM, respectively. The results for the EC50 in series [3] and in series [4] were 0.14 µM and > 244 µM, respectively.
Regarding `O=C(CSc1nnccc1-c1cccc2ccccc12)Nc1ccccc1[N+](=O)[O-]`, the selectivity ratio in series [1] is 2150; in series [5], < 1. Besides, the CC50 was 99.9 µM in series [2] and 135 µM in series [6]. Besides, the EC50 in series [3] was 0.046 µM; in series [4] it was > 135 µM. For the same compound, in series [7], the IC50 came out at 4.06 µM.
In the case of `Cc1ccccc1NC(=O)CSc1nnccc1-c1cccc2ccccc12`, the values for the selectivity ratio in series [1] and in series [5] were 130 and < 1, respectively. The CC50 in series [2] was 142 µM; in series [6], 150 µM. The EC50 in series [3] is 1.09 µM; in series [4] it was > 150 µM.
Regarding `O=C(CSc1nnccc1-c1cccc2ccccc12)Nc1cccnc1Cl`, the selectivity ratio in series [1] is 573; in series [5], < 1. The CC50 in series [2] worked out at 156 µM; in series [6], 164 µM. The EC50 in series [3] was 0.27 µM; in series [4], > 164 µM.
Take `O=C(CSc1nnccc1-c1cccc2ccccc12)N1CCCc2ccccc21`: the selectivity ratio in series [1] and in series [5] was < 1 in each case. Moreover, the CC50 in series [2] stood at 34.5 µM; in series [6], 35 µM. The EC50 is > 34.5 µM in series [3] and > 35 µM in series [4].
In the case of `O=C(CSc1nnccc1-c1cccc2ccccc12)N1CCc2ccccc2C1`, the selectivity ratio in series [1] was 29; in series [5], < 1. For the same compound, the CC50 in series [2] came out at 34 µM; in series [6], 36.5 µM. Also, the EC50 in series [3] is 1.15 µM; in series [4] it was > 36.5 µM.
For `CC(C)Nc1cccnc1N1CCN(C(=O)c2cc3cc(NS(C)(=O)=O)ccc3[nH]2)CC1` [DELAVIRDINE], the selectivity ratio in series [1] is > 1100. For the same compound, the CC50 in series [2] and in series [6] was > 36.2 µM in each case.
As to `O=C1Nc2ccc(Cl)cc2[C@@](C#CC2CC2)(C(F)(F)F)O1` [EFAVIRENZ], the selectivity ratio in series [1] was > 1190. Besides, the CC50 in series [2] and in series [6] was > 6.34 µM in each case.
Regarding `Cc1ccnc2c1NC(=O)c1cccnc1N2C1CC1` [NEVIRAPINE], the CC50 in series [2] and in series [6] was > 15 µM each time.
For `Nc1ccn([C@H]2CC[C@@H](CO)O2)c(=O)n1` [ZALCITABINE], the selectivity ratio in series [1] was > 93; in series [5], > 74. In addition, the CC50 in series [2] and in series [6] was > 94.7 µM in each case. Besides, the EC50 in series [4] turned out to be 1.28 µM.
With `Cc1cn([C@H]2C[C@H](N=[N+]=[N-])[C@@H](CO)O2)c(=O)[nH]c1=O` [ZIDOVUDINE], the selectivity ratio in series [1] came to 12200; in series [5] it was 56900. Also, the EC50 was determined as 0.021 µM in series [3] and 0.0045 µM in series [4].

By CC50 is commonly meant the concentration giving 50% cytotoxicity. For orientation: EC50 means the concentration needed to bring the measured effect to its halfway point. The IC50 is the concentration that inhibits the measured activity by half.
